{
  "source": "patent US9549921B2",
  "about": "“Heterocyclic compounds and methods of use thereof for the treatment of hepatitis C” (priority 2014, dated 2017)",
  "key": {"[1]": {"test_system": "HCV replicon genotype 1a", "assay": "HCV replicon assay, genotype 1a (cell ELISA for NS3/4A)", "assay_type": "cell-based, hepatitis C virus", "details": "for pIC50: read-out: 1a IC50, HCV genotype 1a replicon cells, 96 hours incubation, NS3/4A ELISA readout, % of DMSO control; for IC50: Hepatitis C virus, 96 h, read-out: 1a IC50 (nM), HCV genotype 1a replicon cells, 96 hours incubation, NS3/4A ELISA readout, % of DMSO control", "experimental": "(§1) The HCV NS5B inhibitory activity of the present compounds may be tested using assays known in the art. The HCV NS5B polymerase inhibitors described herein have activities in a genotype 1b replicon assay as described in the Examples. The assay is performed by incubating a replicon harboring cell-line in the presence of inhibitor for a set period of time and measuring the effect of the inhibitor on HCV replicon replication either directly by quantifying replicon RNA level, or indirectly by measuring enzymatic activity of a co-encoded reporter enzyme such as luciferase or β-lactamase. By performing a series of such measurements at different inhibitor concentrations, the effective inhibitory concentration of the inhibitor (EC50 or EC90) is determined. See Jan M. Vrolijk et al., A replicons-based bioassay for the measurement of interferons in patients with chronic hepatitis C, 110 J. VIROLOGICAL METHODS 201 (2003). Such assays may also be run in an automated format for high through-put screening. See Paul Zuck et al., A cell-based β-lactamase reporter gene assay for the identification of inhibitors of hepatitis C virus replication, 334 ANALYTICAL BIOCHEMISTRY 344 (2004).\n(§2) Measurement of inhibition by compounds was performed using the HCV replicon system. Several different replicons encoding different HCV genotypes or mutations were used. In addition, potency measurements were made using different formats of the replicon assay, including different ways of measurements and different plating formats. See Jan M. Vrolijk et al., A replicons-based bioassay for the measurement of interferons in patients with chronic hepatitis C, 110 J. VIROLOGICAL METHODS 201 (2003); Steven S. Carroll et al., Inhibition of Hepatitis C Virus RNA Replication by 2′-Modified Nucleoside Analogs, 278(14) J. BIOLOGICAL CHEMISTRY 11979 (2003). However, the underlying principles are common to all of these determinations, and are outlined below.\n(§3) Stable neomycin phosphotransferase encoding replicons-harboring cell lines were used, so all cell lines were maintained under G418 selection prior to the assay. Potency was deteremined using a cell ELISA assay with an antibody to the replicons encoded NS3/4a protease. See Caterina Trozzi et al., In Vitro Selection and Characterization of Hepatitis C Virus Serine Protease Variants Resistant to an Active-Site Peptide Inhibitor, 77(6) J. Virol. 3669 (2003). To initiate an assay, replicon cells were plated in the presence of a dilution series of test compound in the absence of G418. Typically, the assays were performed in a 96-well plate formate for manual operation, or a 384-well plate format for automated assay. Replicon cells and compound were incubated for 96 hours. At the end of the assay, cells were washed free of media and compound, and the cells were then lysed. RNA was quantified indirectly through detection of replicon-encoded NS3/4A protein levels, through an ELISA-based assay with an antibody specific for NS3/4A. IC50 determinations were calculated as a percentage of a DMSO control by fitting the data to a four-parameter fit function and the data obtained is provided in the table below.\n(§4) Data for selected compounds of the present invention was obtained for genotypes 1a and 1b using this method and is provided in the table below: […]"}, "[2]": {"test_system": "HCV replicon genotype 1b", "assay": "HCV replicon assay, genotype 1b (cell ELISA for NS3/4A)", "assay_type": "cell-based, hepatitis C virus", "details": "for pIC50: read-out: 1b IC50, HCV genotype 1b replicon cells, 96 hours incubation, NS3/4A ELISA readout, % of DMSO control; for IC50: Hepatitis C virus, 96 h, read-out: 1b IC50 (nM), HCV genotype 1b replicon cells, 96 hours incubation, NS3/4A ELISA readout, % of DMSO control", "experimental": "as §1, §2, §3, §4"}},
  "note": "pIC50: −log10 of the molar value. Where two headings read alike, the source gives them in different places.",
  "data": [
    {"compound": "CNC(=O)c1c(-c2ccc(F)cc2)oc2cc(N(C)S(C)(=O)=O)c([C@@H]3CCCN(c4nc5ccccc5o4)C3)cc12", "note": "(single isomer, unassigned) [Example 47, 5-(1-(benzo[d]oxazol-2-yl)piperidin-3-yl)-2-(4-fluorophenyl)-N-methyl-6-(N-methylmethylsulfonamido)benzofuran-3-carboxamide]", "values": [
      {"measurement": "pIC50", "setting": "[1]", "value": 8.08},
      {"measurement": "pIC50", "setting": "[2]", "value": 8.27}
    ]},
    {"compound": "CNC(=O)c1c(-c2ccc(F)cc2)oc2cc(N(C)S(C)(=O)=O)c([C@@H]3CCCN(c4nc5ccccc5o4)C3)cc12", "note": "(single isomer, unassigned) [Example 48, 5-(1-(benzo[d]oxazol-2-yl)piperidin-3-yl)-2-(4-fluorophenyl)-N-methyl-6-(N-methylmethylsulfonamido)benzofuran-3-carboxamide]", "values": [
      {"measurement": "pIC50", "setting": "[1]", "value": 7.40},
      {"measurement": "pIC50", "setting": "[2]", "value": 7.61}
    ]},
    {"compound": "CNC(=O)c1c(-c2ccc(F)cc2)oc2cc(N(C)S(C)(=O)=O)c([C@@H]3CCCN(c4nc5c(F)cccc5o4)C3)cc12", "note": "(single isomer, unassigned) [Example 49, 5-(1-(4-fluorobenzo[d]oxazol-2-yl)piperidin-3-yl)-2-(4-fluorophenyl)-N-methyl-6-(N-methylmethylsulfonamido)benzofuran-3-carboxamide]", "values": [
      {"measurement": "pIC50", "setting": "[1]", "value": 8.24},
      {"measurement": "pIC50", "setting": "[2]", "value": 8.13}
    ]},
    {"compound": "CNC(=O)c1c(-c2ccc(F)cc2)oc2cc(N(C)S(C)(=O)=O)c([C@@H]3CCCN(c4nc5c(F)cccc5o4)C3)cc12", "note": "(single isomer, unassigned) [Example 50, 5-(1-(4-fluorobenzo[d]oxazol-2-yl)piperidin-3-yl)-2-(4-fluorophenyl)-N-methyl-6-(N-methylmethylsulfonamido)benzofuran-3-carboxamide]", "values": [
      {"measurement": "pIC50", "setting": "[1]", "value": 7.09},
      {"measurement": "pIC50", "setting": "[2]", "value": 7.70}
    ]},
    {"compound": "CNC(=O)c1c(-c2ccc(F)cc2)oc2cc(N(C)S(C)(=O)=O)c([C@@H]3CCCN(c4nc5cc(F)ccc5o4)C3)cc12", "note": "(single isomer, unassigned) [Example 52]", "values": [
      {"measurement": "IC50", "setting": "[1]", "value": 32.6, "unit": "nM"},
      {"measurement": "IC50", "setting": "[2]", "value": 42.6, "unit": "nM"}
    ]},
    {"compound": "CNC(=O)c1c(-c2ccc(F)cc2)oc2cc(N(C)S(C)(=O)=O)c([C@@H]3CCCN(c4nc5ncccc5o4)C3)cc12", "note": "(single isomer, unassigned) [Example 53, 2-(4-fluorophenyl)-N-methyl-6-(N-methylmethylsulfonamido)-5-(1-(oxazolo[4,5-b]pyridin-2-yl)piperidin-3-yl)benzofuran-3-carboxamide]", "values": [
      {"measurement": "IC50", "setting": "[1]", "value": 14.6, "unit": "nM"},
      {"measurement": "IC50", "setting": "[2]", "value": 15.7, "unit": "nM"}
    ]},
    {"compound": "CNC(=O)c1c(-c2ccc(F)cc2)oc2cc(N(C)S(C)(=O)=O)c([C@@H]3CCCN(c4nc5ncccc5o4)C3)cc12", "note": "(single isomer, unassigned) [Example 54, 2-(4-fluorophenyl)-N-methyl-6-(N-methylmethylsulfonamido)-5-(1-(oxazolo[4,5-b]pyridin-2-yl)piperidin-3-yl)benzofuran-3-carboxamide]", "values": [
      {"measurement": "pIC50", "setting": "[1]", "value": 8.13},
      {"measurement": "pIC50", "setting": "[2]", "value": 7.86}
    ]},
    {"compound": "CNC(=O)c1c(-c2ccc(F)cc2)oc2cc(N(C)S(C)(=O)=O)c([C@@H]3CCCN(c4nc5c(F)cccc5[nH]4)C3)cc12", "note": "(single isomer, unassigned) [Example 55, 5-(1-(4-fluoro-1H-benzo[d]imidazol-2-yl)piperidin-3-yl)-2-(4-fluorophenyl)-N-methyl-6-(N-methylmethylsulfonamido)benzofuran-3-carboxamide]", "values": [
      {"measurement": "pIC50", "setting": "[1]", "value": 8.25},
      {"measurement": "pIC50", "setting": "[2]", "value": 8.44}
    ]},
    {"compound": "CNC(=O)c1c(-c2ccc(F)cc2)oc2cc(N(C)S(C)(=O)=O)c([C@@H]3CCCN(c4nc5c(F)cccc5[nH]4)C3)cc12", "note": "(single isomer, unassigned) [Example 56, 5-(1-(4-fluoro-1H-benzo[d]imidazol-2-yl)piperidin-3-yl)-2-(4-fluorophenyl)-N-methyl-6-(N-methylmethylsulfonamido)benzofuran-3-carboxamide]", "values": [
      {"measurement": "pIC50", "setting": "[1]", "value": 7.27},
      {"measurement": "pIC50", "setting": "[2]", "value": 7.62}
    ]},
    {"compound": "CNC(=O)c1c(-c2ccc(F)cc2)oc2cc(N(C)S(C)(=O)=O)c([C@@H]3CCCN(c4ncc(-c5ccc(F)cc5)o4)C3)cc12", "note": "(single isomer, unassigned) [Example 57, 2-(4-fluorophenyl)-5-(1-(5-(4-fluorophenyl)oxazol-2-yl)piperidin-3-yl)-N-methyl-6-(N-methylmethylsulfonamido)benzofuran-3-carboxamide]", "values": [
      {"measurement": "pIC50", "setting": "[1]", "value": 7.70},
      {"measurement": "IC50", "setting": "[2]", "value": 22.2, "unit": "nM"}
    ]},
    {"compound": "CNC(=O)c1c(-c2ccc(F)cc2)oc2cc(N(C)S(C)(=O)=O)c([C@@H]3CCCN(c4ncc(-c5ccc(F)cc5)o4)C3)cc12", "note": "(single isomer, unassigned) [Example 58, 2-(4-fluorophenyl)-5-(1-(5-(4-fluorophenyl)oxazol-2-yl)piperidin-3-yl)-N-methyl-6-(N-methylmethylsulfonamido)benzofuran-3-carboxamide]", "values": [
      {"measurement": "pIC50", "setting": "[1]", "value": 6.88},
      {"measurement": "pIC50", "setting": "[2]", "value": 7.44}
    ]},
    {"compound": "CNC(=O)c1c(-c2ccc(F)cc2)oc2cc(N(C)S(C)(=O)=O)c([C@@H]3CCCN(C(=O)C4C5COCC54)C3)cc12", "note": "(stereo in doubt) [Example 59, 2-(4-fluorophenyl)-N-methyl-6-[methyl(methylsulfonyl)amino]-5-[1-(3-oxabicyclo[3.1.0]hex-6-ylcarbonyl)piperidin-3-yl]-1-benzofuran-3-carboxamide]", "values": [
      {"measurement": "IC50", "setting": "[1]", "value": 308, "unit": "nM"},
      {"measurement": "IC50", "setting": "[2]", "value": 120, "unit": "nM"}
    ]},
    {"compound": "CNC(=O)c1c(-c2ccc(F)cc2)oc2cc(N(C)S(C)(=O)=O)c([C@@H]3CCCN(C(=O)C4CC4c4ccc(F)cc4)C3)cc12", "note": "(stereo in doubt) [Example 61, 2-(4-fluorophenyl)-5-(1-{[2-(4-fluorophenyl)cyclopropyl]carbonyl}piperidin-3-yl)-N-methyl-6-[methyl(methylsulfonyl)amino]-1-benzofuran-3-carboxamide]", "values": [
      {"measurement": "IC50", "setting": "[1]", "value": 251, "unit": "nM"},
      {"measurement": "IC50", "setting": "[2]", "value": 99.5, "unit": "nM"}
    ]},
    {"compound": "CNC(=O)c1c(-c2ccc(F)cc2)oc2cc(N(C)S(C)(=O)=O)c([C@@H]3CCCN(C(=O)c4cc5cccnc5[nH]4)C3)cc12", "note": "(stereo in doubt) [Example 66, 2-(4-fluorophenyl)-N-methyl-6-[methyl(methylsulfonyl)amino]-5-[1-(1H-pyrrolo[2,3-b]pyridin-2-ylcarbonyl)piperidin-3-yl]-1-benzofuran-3-carboxamide]", "values": [
      {"measurement": "IC50", "setting": "[1]", "value": 92.6, "unit": "nM"},
      {"measurement": "IC50", "setting": "[2]", "value": 21.2, "unit": "nM"}
    ]},
    {"compound": "CNC(=O)c1c(-c2ccc(F)cc2)oc2cc(N(C)S(C)(=O)=O)c([C@@H]3CCCN(C(=O)Cc4ccc(F)cn4)C3)cc12", "note": "(stereo in doubt) [Example 70, 2-(4-fluorophenyl)-5-{1-[(5-fluoropyridin-2-yl)acetyl]piperidin-3-yl}-N-methyl-6-[methyl(methylsulfonyl)amino]-1-benzofuran-3-carboxamide]", "values": [
      {"measurement": "IC50", "setting": "[1]", "value": 207, "unit": "nM"},
      {"measurement": "IC50", "setting": "[2]", "value": 67.9, "unit": "nM"}
    ]},
    {"compound": "CNC(=O)c1c(-c2ccc(F)cc2)oc2cc(N(C)S(C)(=O)=O)c(C3CC(c4nc5c(F)cccc5o4)CN(C)C3)cc12", "note": "(stereo not shown) [Example 1, 5-(5-(4-fluorobenzo[d]oxazol-2-yl)-1-methylpiperidin-3-yl)-2-(4-fluorophenyl)-N-methyl-6-(N-methylmethylsulfonamido)benzofuran-3-carboxamide]", "values": [
      {"measurement": "IC50", "setting": "[1]", "value": 56.9, "unit": "nM"},
      {"measurement": "IC50", "setting": "[2]", "value": 34.3, "unit": "nM"}
    ]},
    {"compound": "CNC(=O)c1c(-c2ccc(F)cc2)oc2cc(N(C)S(C)(=O)=O)c([C@@H]3CCCN(S(=O)(=O)c4cc5cccc(F)c5[nH]4)C3)cc12", "note": "[Example 2, (S)-5-(1-((7-fluoro-1H-indol-2-yl)sulfonyl)piperidin-3-yl)-2-(4-fluorophenyl)-N-methyl-6-(N-methylmethylsulfonamido)benzofuran-3-carboxamide]", "values": [
      {"measurement": "IC50", "setting": "[1]", "value": 84.1, "unit": "nM"},
      {"measurement": "IC50", "setting": "[2]", "value": 41, "unit": "nM"}
    ]}
  ]
}
